These are literature values, as cited in patent US20070196465A1, “Treatment with dihydropyridine calcium channel blockers and omega-3 fatty acids and a combination product thereof” (priority 2005, published 2007).

Data set [1] deals with heart. To be noted: Finkel et al. 1992.
The test system of data set [2] is cells. To be noted: dihydropyridine alone.
The subject of data set [3] is L-type Ca^2+ channel. The note with it: dihydropyridine alone.

As to `CCCCC/C=C\C/C=C\C/C=C\C/C=C\CCCC(=O)O` [arachidonic acid], the inotropic effect entry in data set [1] is “concentration-dependent negative inotropes”.
Take `COC(=O)C1=C(C)NC(C)=C([N+](=O)[O-])C1c1ccccc1C(F)(F)F` (stereo not shown) [Bay K 8644]: the inotropic effect entry in data set [1] was “concentration-dependent positive inotrope”. Besides, the “effect on calcium influx / cytosolic free calcium and cell contraction” value in data set [2] was “increases in calcium influx and the contracture of cells”. Further, the “effect on peak L-type Ca2+ channel current, cytosolic Ca2+ and cell contraction” value in data set [3] was “significantly increases peak L-type Ca^2+ channel current, cytosolic Ca^2+, and cell contraction”.
